# Measurements: patent US20220330529A1, “METHODS FOR GENERATING ANIMAL MODELS FOR NONALCOHOLIC FATTY LIVER DISEASE” (INNOLAND BIOSCIENCES (ZHEJIANG) CO., LTD., priority 2019, published 2022)
# Experiments:
# [1] = tested on: MS-NASH mice; assay: Low dose CCl4 (0.08 mL/kg) twice weekly for 8 weeks in MS-NASH mice on WDF; format: in vivo, mouse; settings: week 12 and 14, 3 days after CCl4 dosing, vs mice on WDF only
# [2] = tested on: MS-NASH mice; assay: as above; format: in vivo, mouse
# Description: (§1) Male MS-NASH (formally FATZO) mice were developed by Crown Bioscience as the new generation of mouse model with obese, metabolic disorder, diabetes and NAFLD/NASH that is more translatable to human diseases. The animals for this study were bred housed individually in IVC cages (Taicang, China) or open ventilated cages (Indianapolis, Ind.), and fed control diet (CD, Purina 5008 chow, LabDiet, St. Louis, Mo.) with distilled water ad libitum for the first 8 weeks after birth, then, stratified into different experimental groups based on body weight, serum ALT and AST. Room temperature was monitored and maintained at 22-26° C. with a 12-hour light cycle (06:00-18:00). C57B1/6J mice (The Jackson Laboratory, Ellsworth, Maine) were used as control strain and housed under the same conditions. All mice were maintained and treated in accordance with the guidelines of Association for Assessment and Accreditation of Laboratory Animal Care (AAALAC), and experimental protocols approved by the Institutional Animal Care and Use Committee (IACUC).
# (§2) In all the experiments, body weights were recorded every 4 weeks. At the end of the experiments, all mice were euthanized by CO2 inhalation and confirmed with cervical dislocation approximately 24 hours after the last CCl4 administration.
# (§3) Blood samples: Blood samples during the course of the experiment were collected from the tail or at the end of the experiment from cardiac puncture, from which, serum prepared for measuring AST and ALT by a clinical analyzer (Beckman-Coulter AU480; Brea, Calif.). In the low dose CCl4 repeated treatment group, in-life blood samples were taken—24 hours, and terminal blood samples taken, —24 hours after CCl4 doing, respectively. A separate experiment was performed to observe the acute time course at 24, 48 and 72 hours in response to a single dose of CCl4 at 0.2 mL/kg in MS-NASH mice on CD.
# Liver contents: The right lobe of the liver (— 200 mg/animal) was collected and snap frozen in liquid nitrogen, placed in Lysing Matrix D Tubes with distilled water at 20% concentration (MP Biomedicals, Santa Anna, CA), homogenized in a Fastprep-FP120 cell disrupter (Thermo Fisher Savant) in cold condition for 30 seconds. The liver contents of triglyceride and cholesterol were analyzed by a clinical analyzer (Beckman-Coulter AU480) within 30 min of sample preparation.
# (§4) Tissue processing: The liver tissues were fixed in 10% neutral buffered formalin (NBF) at 4° C. for 24 hours followed by baths of standard concentrations of alcohol then xylene to prepare the tissues for paraffin embedding. After being embedded in paraffin and cooled, five-micron sections were cut and stained for routine H&E and Picric Sirius Red.
# (§5) Semi-quantitative scoring by a pathologist: The digital images were evaluated by a well-trained research pathologist blind of different study groups with the standard NASH criteria for semi-quantitative scoring commonly used in preclinical animal models and in patients. Hepatosteatosis, lobular inflammation, and hepatocyte balloon degeneration were scored individually from the H&E staining and then summarized as a standard NAFLD Activity Score (NAS). Fibrosis score was assessed systemically with pattern recognition from PSR staining. Three representative areas per liver were examined and the scores of each parameter from individual animal were averaged.
# Computerized quantitative analysis: Computer software with […] (AI) machine learning algorithm for histology analysis from Halo (Indica Labs, Albuquerque, N. Mex.) or ImageDx (Reveal Biosciences, San Diego, Calif.) were used to analyze digitally scanned images of H&E and PSR staining for quantitative analysis of steatosis, ballooning, inflammation or fibrosis in a set of the same slides evaluated by the pathologist. […]
# [3] = tested on: MS-NASH mice; assay: High dose CCl4 (0.2 mL/kg) twice weekly for 3 weeks in MS-NASH mice on WDF; format: in vivo, mouse
# Description: as §1, §2, §3, §4, §5
# Computerized quantitative analysis: Computer software with […] (AI) machine learning algorithm for histology analysis from Halo (Indica Labs, Albuquerque, N. Mex.) or ImageDx (Reveal Biosciences, San Diego, Calif.) were used to analyze digitally scanned images of H&E and PSR staining for quantitative analysis of steatosis, ballooning, inflammation or fibrosis in a set of the same slides evaluated by the pathologist. The analysis process included automated tissue identification, followed by segmentation of regions of interest for quantification of the following metrics: 1) Steatosis percentage: the area of total lipid accumulation subcategorized micro- or macro-vesicular within the entire section area; 2) Ballooning hepatocyte density: the density of ballooning hepatocytes within the entire section area; 3) Inflammatory cell density: the total number of inflammatory cells within the entire section area. All 3 parameters above were analyzed in the H&E stained section. 4)Fibrosis percentage: the total fibrosis area within the entire section area in the PSR stained section. […]
# [4] = tested on: MS-NASH mice; assay: Survival rate in MS-NASH mice on WDF under CCl4; format: in vivo, mouse
# Description: (§6) All values are reported as Mean±SEM, unless noted otherwise. Model characterization were compared in MS-NASH mice on CD or WDF with or without CCl4; and effects of OCA were compared to vehicle with One-Way ANOVA for multiple groups or Holm-Sidak t-test for 2 groups. Survival curves of total MS-NASH mice and C57B1/6 mice were compared using Log-rank test for trend. Parametric correlation tests were conducted between pathologist scores and ImageDx quantitative analysis using Pearson correlation coefficient r. Statistical differences were denoted as p<0.05 or p<0.005. Prism software (GraphPad, version 8.3) was used for the statistical analysis and graphing.
# (§7) This example illustrates survival rate in MS-NASH and C57B1/6 mice on WDF and treated high and low dose of CCL4.
# [5] = tested on: C57B1/6 mice; assay: Survival rate in C57B1/6 mice on WDF under CCl4; format: in vivo, mouse; settings: low dose CCl4; C57B1/6 compared to MS-NASH mice; trend not statistically significant
# Description: as §6, §7
# [6] = tested on: mice model; settings: high chemical dosage (0.8-1.0 ml/kg) required to generate liver fibrosis phenotype; cited from earlier work
# [7] = tested on: C57B1/6 mice; assay: Therapeutic effects of OCA in WDF fed C57B1/6 mice treated low dose CCl4; format: in vivo, mouse; settings: OCA 30 mg/kg orally once daily 8 weeks vs vehicle
# Description: as §1
# (§8) In all the experiments, body weights were recorded every 4 weeks. […]
# (§9) All values are reported as Mean±SEM, unless noted otherwise. […] Parametric correlation tests were conducted between pathologist scores and ImageDx quantitative analysis using Pearson correlation coefficient r. […]
# [8] = tested on: MS-NASH mice; assay: Therapeutic effects of OCA in WDF fed MS-NASH mice treated low dose CCl4; format: in vivo, mouse; settings: OCA 30 mg/kg orally once daily 8 weeks vs vehicle
# Description: as §1, §8, §9
# [9] = CCl4 0.08 mL/kg twice weekly 8 weeks, WDF vs WDF+CCl4
# [10] = CCl4 0.08 mL/kg twice weekly 8 weeks, end of study
# [11] = CCl4 0.08 mL/kg twice weekly 8 weeks, with vs without CCl4
# [12] = CCl4 0.08 mL/kg, 24 hours after the last dose at end of experiment, compared to high dose CCl4
# [13] = CCl4 0.2 mL/kg IP twice weekly 3 weeks, vs CD or WDF without CCl4
# [14] = CCl4 0.2 mL/kg twice weekly 3 weeks, MS-NASH mice on WDF
# [15] = CCl4 0.2 mL/kg twice weekly 3 weeks, measured 24 hours after the last dose
# [16] = WDF + CCl4 0.08 mL/kg twice weekly
compound,measurement,setting,value
"ClC(Cl)(Cl)Cl [CCl4, carbon tetrachloride]",in-life serum ALT level,[1],significantly lower
same,in-life serum AST level,[1],significantly lower
same,liver fibrosis score evaluated by the pathologist,[2]; [9],significantly aggravated
same,other aspects of liver pathology (NAS scores by the pathologist),[2]; [9],little influence
same,liver contents of cholesterol,[2]; [10],significantly reduced
same,liver weight,[2]; [10],significantly reduced
same,body weight,"[2]; CCl4 0.08 mL/kg twice weekly 8 weeks, vs mice without CCl4",reduced
same,fibrosis area by Reveal ImageDx,[2]; [11],larger
same,"steatosis area, inflammatory cell infiltration and degenerated liver cell counts by Reveal ImageDx",[2]; [11],no significant difference
same,elevation of serum ALT,[2]; [12],not as dramatic
same,elevation of serum AST,[2]; [12],not as dramatic
same,NAFLD progression and fibrosis development,[2]; MS-NASH mice fed WDF with 0.08 ml/kg CCl4,accelerated
same,caloric intake,[3]; [13],significantly reduced
same,food intake,[3]; [13],significantly reduced
same,body weight,"[3]; CCl4 0.2 mL/kg IP twice weekly 3 weeks, vs MS-NASH mice on CD or WDF without CCl4",significantly reduced
same,fibrosis area by computer analysis software (Halo) from PSR images,[3]; [14],~8%
same,"histopathology images (H&E, PSR)",[3]; [14],aggravated liver injury and centrilobular fibrosis
same,"pathology scores by the pathologist (steatosis, inflammation, ballooning, overall NAS, fibrosis score)",[3]; [14],failed to detect such enhanced pathology
same,serum ALT,[3]; [15],dramatically elevated
same,serum AST,[3]; [15],dramatically elevated
same,death,"[4]; high dose CCl4 (0.2 mL/kg twice weekly), within the first 3 weeks",~20%
same,survival rate,"[4]; lower dose CCl4 (0.08 mL/kg twice weekly), end of 8-week experimental duration",87.5%
same,survival rate,[5],tended to be lower
same,body weight,[6],severe body weight loss
"CC[C@H]1[C@@H](O)[C@@H]2[C@H](CC[C@]3(C)[C@@H]([C@H](C)CCC(=O)O)CC[C@@H]23)[C@@]2(C)CC[C@@H](O)C[C@@H]12 [OCA, obeticholic acid]",serum ALT level,[7],no significant effect
same,body weight,[7]; [16],no significant effect
same,serum ALT level,[8],no significant effect
same,body weight,[8]; [16],no significant effect
